Laboratory results: paper PMC7403315, “Cyclic peptide FXII inhibitor provides safe anticoagulation in a thrombosis model and in artificial lungs” (Nature Communications, 2020)
Several values for one entry are separate records, joined by “and”; a condition that tells them apart may be missing. Equal values may be shown once. Starred links: 1 amine or outer side, 2 acyl side, 3 side chain; linkers in the order of their positions; H or OH if unused. Positions of bridges follow the written chain, without caps; N, C: chain ends. Non-standard residues stand in square brackets, D forms with d. Residues, ends and D or L forms follow the SMILES beside them. TATA = O=C(CC[*:1])N1CN(C(=O)CC[*:2])CN(C(=O)CC[*:3])C1; Phe(4-F) = N[C@@H](Cc1ccc(F)cc1)C(=O)O; β3hR = N=C(N)NCCC[C@H](N)CC(=O)O

Tests used:
Type in all cases: biochemical
[1] = molecular target: activated protein C (APC) (Homo sapiens, UniProt P04070); assay: Specificity profiling, residual protease activity (chromogenic substrate)
Experimental: (§1) Protease inhibition assays
(§2) The inhibitory activity of peptides was determined by measuring the residual protease activity with a fluorogenic substrate. The assay was performed in buffer containing 10 mM Tris-Cl, pH […]
(§3) 1% (v/v) DMSO in a volume of 150 µl. […]
(§4) HFXIIAB) were used at final concentrations of 0.4 nM. The reaction was pipetted as follows: 50 µl of bicyclic peptide in assay buffer were added to 50 µl of FXIIa in assay buffer and incubated for 10 minutes at 25°C before 50 µl of 150 µM fluorogenic substrate in assay buffer were added to measure the residual protease activity with an Infinite M200Pro fluorescence plate reader (excitation at 368 nm, emission at 467 nm; Tecan) for a period of 30 minutes with a read every minute at 25°C. The Tecan software i-control (version 1.1) was used for data analysis. Stock solutions of 1 mM bicyclic peptide were prepared by either dissolving the unpurified cyclization reaction with water or by dissolving purified and lyophilized peptide in water. The bicyclic peptides were serially diluted two-fold using assay buffer. Sigmoidal curves were fitted to the data using the following dose response equation (1), wherein x = peptide concentration, y = % protease activity, and p = Hill slope. IC50 values were derived from the fitted curve.
(§5) The inhibition constants (Ki) were calculated according to the equation of Cheng and Prusoff, Ki = IC50/(1+([S]0/Km), wherein IC50 is the functional strength of the inhibitor, [S]0 is the total substrate concentration, and Km is the Michaelis-Menten constant. […]
(§6) For testing the specificity of the bicyclic peptides, the following final concentrations of human serine proteases were used: tPA (Molecular Innovations) 7.5 nM, uPA (Molecular Innovations) 1.5 nM, factor XIa (Innovative Research) 6 nM, plasma kallikrein (Innovative Research) 0.25 nM, thrombin (Molecular Innovations) 1 nM, plasmin (Molecular Innovations) 2.5 nM, trypsin (Molecular Innovations) 0.05 nM, factor VIIa (Haematologic Technologies) 50 nM, factor Xa […]
(§7) (Haematologic Technologies) 6 nM, and activated protein C (APC) 5 nM. Two-fold dilutions of the peptide were prepared that ranged from 0.04 to 40 µM. The following fluorogenic substrates were used at a final concentration of 50 µM: Z-Phe-Arg-AMC (Bachem) for plasma kallikrein; Boc-Phe-Ser-Arg-AMC (Bachem) for factor XIa; Z-Gly-Gly-Arg-AMC (Bachem) for tPA, uPA, thrombin, and trypsin; H-D-Val-Leu-Lys-AMC (Bachem) for plasmin; and D-Phe-Pro-Arg-ANSNH-C4H9 (Haematologic Technologies) for FVIIa and FXa. For APC, the chromogenic substrate pyroGlu-Pro-Arg-pNA (S2366) was used at a concentration of 400 µM. […]

factor VIIa = molecular target: T1, factor VIIa (Homo sapiens, UniProt P08709); assay: Specificity profiling, residual protease activity
T1 construct: (Molecular Innovations) 0.05 nM, factor VIIa (Haematologic Technologies) 50 nM, factor Xa; purchased Haematologic Technologies
T1 sequence (P08709 213-466 limits assumed): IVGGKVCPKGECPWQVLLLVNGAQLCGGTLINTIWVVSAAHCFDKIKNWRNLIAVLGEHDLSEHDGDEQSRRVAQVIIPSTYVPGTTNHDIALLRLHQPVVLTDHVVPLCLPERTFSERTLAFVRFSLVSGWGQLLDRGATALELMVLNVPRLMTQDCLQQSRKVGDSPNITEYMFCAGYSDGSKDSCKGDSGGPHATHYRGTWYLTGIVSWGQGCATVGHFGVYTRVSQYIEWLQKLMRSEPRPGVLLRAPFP
T1 sequence (P08709 61-212 limits assumed): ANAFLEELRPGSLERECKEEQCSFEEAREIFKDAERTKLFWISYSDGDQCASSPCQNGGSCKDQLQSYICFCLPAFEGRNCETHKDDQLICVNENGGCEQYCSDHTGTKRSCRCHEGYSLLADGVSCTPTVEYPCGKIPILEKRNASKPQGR
Experimental: as §1, §2, §3, §4, §5, §6, §7

tPA = molecular target: T2, tPA (Homo sapiens, UniProt P00750); assay: Specificity profiling, residual protease activity
T2 construct: purchased Molecular Innovations
Experimental: as §1, §2, §3, §4, §5, §6, §7

thrombin = molecular target: T3, thrombin (Homo sapiens, UniProt P00734); assay: Specificity profiling, residual protease activity
T3 construct: nM, thrombin (Molecular Innovations) 1 nM, plasmin (Molecular Innovations) 2.5 nM, trypsin; purchased Molecular Innovations
Experimental: as §1, §2, §3, §4, §5, §6, §7

[2] = inhibitor 39.0625 nM, 0.0390625 µM
[3] = inhibitor 78.125 nM, 0.078125 µM
[4] = inhibitor 156.25 nM, 0.15625 µM
[5] = inhibitor 40000 nM (40 µM), 40 µM

T2 sequence (P00750 36-562): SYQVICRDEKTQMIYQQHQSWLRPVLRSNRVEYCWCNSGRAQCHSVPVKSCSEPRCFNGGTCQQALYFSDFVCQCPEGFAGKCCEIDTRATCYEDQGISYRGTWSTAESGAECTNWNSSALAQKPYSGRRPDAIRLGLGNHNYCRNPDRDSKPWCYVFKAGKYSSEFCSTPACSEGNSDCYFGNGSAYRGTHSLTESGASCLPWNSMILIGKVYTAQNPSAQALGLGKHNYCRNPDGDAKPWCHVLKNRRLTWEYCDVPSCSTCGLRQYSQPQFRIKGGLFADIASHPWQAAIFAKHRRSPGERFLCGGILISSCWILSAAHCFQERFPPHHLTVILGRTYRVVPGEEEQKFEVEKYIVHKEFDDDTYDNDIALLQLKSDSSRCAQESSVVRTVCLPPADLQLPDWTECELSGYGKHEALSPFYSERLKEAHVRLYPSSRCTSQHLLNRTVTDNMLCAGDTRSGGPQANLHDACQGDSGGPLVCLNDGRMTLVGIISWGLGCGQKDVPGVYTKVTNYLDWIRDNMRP
Chain of activated protein C (APC) (P04070 212-461 limits assumed): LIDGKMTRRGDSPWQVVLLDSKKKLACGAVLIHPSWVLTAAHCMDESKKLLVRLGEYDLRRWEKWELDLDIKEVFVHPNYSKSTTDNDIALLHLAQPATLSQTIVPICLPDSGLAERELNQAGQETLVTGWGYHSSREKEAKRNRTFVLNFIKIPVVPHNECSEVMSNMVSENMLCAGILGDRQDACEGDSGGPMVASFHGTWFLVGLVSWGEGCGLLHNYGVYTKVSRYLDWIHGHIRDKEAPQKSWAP
Chain of activated protein C (APC) (P04070 43-197 limits assumed): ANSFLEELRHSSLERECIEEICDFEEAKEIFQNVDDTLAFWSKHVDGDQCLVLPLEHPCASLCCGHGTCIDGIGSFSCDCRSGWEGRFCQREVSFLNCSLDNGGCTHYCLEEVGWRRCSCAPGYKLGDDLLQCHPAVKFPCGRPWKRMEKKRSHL

SMILES: CC(C)C[C@@H]1NC(=O)[C@H](CCC(N)=O)NC(=O)[C@H](Cc2c[nH]cn2)NC(=O)[C@@H]2CSCCC(=O)N3CN(CN(C3)C(=O)CCSC[C@H](NC(=O)[C@@H](CO)NC(=O)[C@H](N)CCCNC(=N)N)C(=O)N[C@@H](Cc3ccc(F)cc3)C(=O)N[C@@H](CCCNC(=N)N)C(=O)N[C@@H](CC(C)C)C(=O)N3CCC[C@H]3C(=O)N2)C(=O)CCSC[C@@H](C(N)=O)NC(=O)C[C@H](CCCNC(=N)N)NC1=O [FXII900] (H-[dR][dS]C[Phe(4-F)]RLPCHQL[β3hR]C-NH2; linker 3-8-13 via TATA)
- Ki [1]: > 40 µM
- remaining activity at 0.0390625 µM ([1]; inhibitor 39.0625 nM): 98.1%
- Residual activity of APC [1, 2]: 97.5009% and 97.9227%
- remaining activity at 0.078125 µM ([1]; inhibitor 78.125 nM): 102%
- Residual activity of APC [1, 3]: 96.3711% and 96.6396%
- remaining activity at 0.15625 µM ([1]; inhibitor 156.25 nM): 102%
- Residual activity of APC [1, 4]: 97.5779% and 99.0137%
- remaining activity at 0.3125 µM ([1]; inhibitor 312.5 nM): 102%
- Residual activity of APC ([1]; inhibitor 312.5 nM, 0.3125 µM): 99.2982% and 100.044%
- remaining activity at 0.625 µM ([1]; inhibitor 625 nM): 103%
- Residual activity of APC ([1]; inhibitor 625 nM, 0.625 µM): 98.4851% and 100.174%
- remaining activity at 1.25 µM ([1]; inhibitor 1250 nM): 103%
- Residual activity of APC ([1]; inhibitor 1250 nM, 1.25 µM): 97.7747% and 100.567%
- remaining activity at […] ([1]; inhibitor 2500 nM): 102%
- remaining activity at 5 µM ([1]; inhibitor 5000 nM): 101%
- Residual activity of APC ([1]; inhibitor 5000 nM, 5 µM): 97.0131% and 99.7294%
- remaining activity at 10 µM ([1]; inhibitor 10000 nM): 101%
- Residual activity of APC ([1]; inhibitor 10000 nM, 10 µM): 97.8346% and 99.7294%
- remaining activity at 20 µM ([1]; inhibitor 20000 nM): 101%
- Residual activity of APC ([1]; inhibitor 20000 nM, 20 µM): 96.859% and 99.2406%
- remaining activity at 40 µM ([1]; inhibitor 40000 nM (40 µM)): 98.3 ± 2.3%
- Residual activity of APC [1, 5]: 100.29% and 95.7977% and 98.8915%
- Residual activity of FVIIa (factor VIIa; inhibitor 5000 nM, 5 µM): 109.299%
- remaining activity at 5 µM (factor VIIa; inhibitor 5000 nM, read-out: Residual activity of FVIIa): 108%
- Residual activity of FVIIa (factor VIIa; inhibitor 10000 nM, 10 µM): 109.026%
- remaining activity at 10 µM (factor VIIa; inhibitor 10000 nM, read-out: Residual activity of FVIIa): 107%
- Residual activity of FVIIa (factor VIIa; inhibitor 20000 nM, 20 µM): 101.426%
- remaining activity at 20 µM (factor VIIa; inhibitor 20000 nM, read-out: Residual activity of FVIIa): 101%
- Residual activity of FVIIa (factor VIIa; [5]): 102.615% and 96.13%
- remaining activity at 40 µM (factor VIIa; inhibitor 40000 nM (40 µM), read-out: Residual activity of FVIIa): 97.1%
- Ki (factor VIIa; read-out: Ki FVIIa): > 40 µM
- Ki (tPA): > 40 µM
- remaining activity at 0.0390625 µM (tPA; inhibitor 39.0625 nM): 95.1%
- Residual activity of tPa (tPA; [2]): 93.3208%
- remaining activity at 0.078125 µM (tPA; inhibitor 78.125 nM): 95.9%
- Residual activity of tPa (tPA; [3]): 101.687%
- remaining activity at 0.15625 µM (tPA; inhibitor 156.25 nM): 98.8%
- Residual activity of tPa (tPA; [4]): 101.694%
- remaining activity at 0.3125 µM (tPA; inhibitor 312.5 nM): 97.2%
- Residual activity of tPa (tPA; inhibitor 312.5 nM, 0.3125 µM): 101.741%
- remaining activity at 0.625 µM (tPA; inhibitor 625 nM): 95%
- Residual activity of tPa (tPA; inhibitor 625 nM, 0.625 µM): 94.8368%
- remaining activity at 1.25 µM (tPA; inhibitor 1250 nM): 101%
- Residual activity of tPa (tPA; inhibitor 1250 nM, 1.25 µM): 102.859%
- remaining activity at […] (tPA; inhibitor 2500 nM): 100%
- Residual activity of tPa (tPA; inhibitor 2500 nM, […]): 101.452%
- remaining activity at 5 µM (tPA; inhibitor 5000 nM): 87.2%
- Residual activity of tPa (tPA; inhibitor 5000 nM, 5 µM): 93.856%
- Residual activity of tPa (tPA; inhibitor 10000 nM, 10 µM): 102.407% and 77.7753%
- remaining activity at 20 µM (tPA; inhibitor 20000 nM): 89.2%
- Residual activity of tPa (tPA; inhibitor 20000 nM, 20 µM): 97.2498%
- remaining activity at 40 µM (tPA; inhibitor 40000 nM (40 µM)): 97%
- Residual activity of tPa (tPA; [5]): 94.4809% and 101.833%
- Ki (thrombin): > 40 µM
- remaining activity at 0.0390625 µM (thrombin; inhibitor 39.0625 nM): 101%
- Residual activity of Thrombin (thrombin; [2]): 100%
- remaining activity at 0.078125 µM (thrombin; inhibitor 78.125 nM): 103%
- Residual activity of Thrombin (thrombin; [3]): 98.3135%
- remaining activity at 0.15625 µM (thrombin; inhibitor 156.25 nM): 105%
- Residual activity of Thrombin (thrombin; [4]): 102.594%
- remaining activity at 0.3125 µM (thrombin; inhibitor 312.5 nM): 104%
- Residual activity of Thrombin (thrombin; inhibitor 312.5 nM, 0.3125 µM): 101.218%
- remaining activity at 0.625 µM (thrombin; inhibitor 625 nM): 102%
- Residual activity of Thrombin (thrombin; inhibitor 625 nM, 0.625 µM): 96.4184%
- remaining activity at 1.25 µM (thrombin; inhibitor 1250 nM): 105%
- Residual activity of Thrombin (thrombin; inhibitor 1250 nM, 1.25 µM): 102.09%
- remaining activity at […] (thrombin; inhibitor 2500 nM): 103%
- Residual activity of Thrombin (thrombin; inhibitor 2500 nM, […]): 101.007%
- remaining activity at 5 µM (thrombin; inhibitor 5000 nM): 105%
- Residual activity of Thrombin (thrombin; inhibitor 5000 nM, 5 µM): 93.4869%
- remaining activity at 10 µM (thrombin; inhibitor 10000 nM): 99%
- Residual activity of Thrombin (thrombin; inhibitor 10000 nM, 10 µM): 98.045%
- remaining activity at 20 µM (thrombin; inhibitor 20000 nM): 102%
- Residual activity of Thrombin (thrombin; inhibitor 20000 nM, 20 µM): 95.8152%
- remaining activity at 40 µM (thrombin; inhibitor 40000 nM (40 µM)): 95%
- Residual activity of Thrombin (thrombin; [5]): 99.0803% and 90.0661%
